Drawing on ChEMBL document CHEMBL1150977, “A quantitative analysis of kinase inhibitor selectivity” (Nat Biotechnol, 2008), this text covers Kd for six compounds.

In test [1] the target is T1, Serine/threonine-protein kinase 4 (Homo sapiens, UniProt Q13043).
T1 sequence (Q13043 whole entry): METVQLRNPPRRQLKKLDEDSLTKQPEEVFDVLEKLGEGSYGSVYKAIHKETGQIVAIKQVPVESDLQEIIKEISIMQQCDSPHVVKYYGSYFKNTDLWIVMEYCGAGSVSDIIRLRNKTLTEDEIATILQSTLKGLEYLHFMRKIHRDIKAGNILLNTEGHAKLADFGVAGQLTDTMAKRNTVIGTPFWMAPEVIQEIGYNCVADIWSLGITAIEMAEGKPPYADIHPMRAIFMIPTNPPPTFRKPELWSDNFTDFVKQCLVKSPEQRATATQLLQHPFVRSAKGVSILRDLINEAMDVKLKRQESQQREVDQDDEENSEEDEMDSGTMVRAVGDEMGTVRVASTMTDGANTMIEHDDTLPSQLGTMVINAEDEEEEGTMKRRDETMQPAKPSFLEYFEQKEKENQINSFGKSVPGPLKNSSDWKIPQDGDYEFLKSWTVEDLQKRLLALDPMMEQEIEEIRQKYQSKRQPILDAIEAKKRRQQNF

For test [2], the target named is T2, Serine/threonine-protein kinase STK11 (Homo sapiens, UniProt Q15831).
T2 sequence (Q15831 whole entry): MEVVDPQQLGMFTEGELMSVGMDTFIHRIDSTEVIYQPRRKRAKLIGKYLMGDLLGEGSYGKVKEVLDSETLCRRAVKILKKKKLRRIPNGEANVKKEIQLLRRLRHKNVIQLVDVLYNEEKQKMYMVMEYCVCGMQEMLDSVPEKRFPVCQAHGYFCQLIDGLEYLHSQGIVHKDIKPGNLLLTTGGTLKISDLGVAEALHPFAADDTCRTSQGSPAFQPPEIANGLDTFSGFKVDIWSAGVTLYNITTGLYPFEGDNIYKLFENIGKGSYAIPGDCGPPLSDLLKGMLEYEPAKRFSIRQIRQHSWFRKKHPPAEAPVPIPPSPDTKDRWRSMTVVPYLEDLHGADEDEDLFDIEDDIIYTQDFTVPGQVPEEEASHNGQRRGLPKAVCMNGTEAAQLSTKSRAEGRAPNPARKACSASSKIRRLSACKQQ

For test [3], the target named is T3, Ephrin type-A receptor 6 (Homo sapiens, UniProt Q9UF33).
T3 sequence (Q9UF33 whole entry): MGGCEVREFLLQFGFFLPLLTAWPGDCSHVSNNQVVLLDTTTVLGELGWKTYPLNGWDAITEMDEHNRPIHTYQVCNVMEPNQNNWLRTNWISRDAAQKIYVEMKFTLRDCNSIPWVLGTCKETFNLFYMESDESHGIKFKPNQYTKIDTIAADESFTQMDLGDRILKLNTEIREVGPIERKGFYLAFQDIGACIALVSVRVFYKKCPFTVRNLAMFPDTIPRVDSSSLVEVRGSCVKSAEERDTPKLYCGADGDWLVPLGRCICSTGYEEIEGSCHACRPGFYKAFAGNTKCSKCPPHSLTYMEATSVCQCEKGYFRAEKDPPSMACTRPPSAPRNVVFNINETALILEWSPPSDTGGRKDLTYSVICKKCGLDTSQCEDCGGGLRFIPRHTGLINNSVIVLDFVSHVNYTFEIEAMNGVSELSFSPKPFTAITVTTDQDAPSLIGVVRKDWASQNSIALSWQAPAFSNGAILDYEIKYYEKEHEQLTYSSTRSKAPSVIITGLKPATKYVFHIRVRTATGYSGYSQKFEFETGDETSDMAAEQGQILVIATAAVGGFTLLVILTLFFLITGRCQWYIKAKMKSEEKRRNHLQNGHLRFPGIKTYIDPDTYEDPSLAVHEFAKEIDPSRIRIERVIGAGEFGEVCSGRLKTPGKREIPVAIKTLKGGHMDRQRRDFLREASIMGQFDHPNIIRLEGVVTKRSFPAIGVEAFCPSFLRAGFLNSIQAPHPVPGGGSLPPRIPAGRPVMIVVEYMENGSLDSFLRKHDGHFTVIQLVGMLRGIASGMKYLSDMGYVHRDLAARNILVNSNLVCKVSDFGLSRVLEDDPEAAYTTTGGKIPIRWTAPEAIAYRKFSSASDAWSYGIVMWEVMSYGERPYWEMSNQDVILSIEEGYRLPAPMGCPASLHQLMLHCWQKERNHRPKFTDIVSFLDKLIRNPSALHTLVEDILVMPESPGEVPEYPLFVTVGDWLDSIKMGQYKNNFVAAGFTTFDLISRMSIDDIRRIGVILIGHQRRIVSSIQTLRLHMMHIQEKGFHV

Test [4] addresses Serine/threonine-protein kinase tousled-like 2 (Homo sapiens, UniProt Q86UE8).
For test [5], the target named is T4, Receptor-interacting serine/threonine-protein kinase 1 (Homo sapiens, UniProt Q13546).
T4 sequence (Q13546 whole entry): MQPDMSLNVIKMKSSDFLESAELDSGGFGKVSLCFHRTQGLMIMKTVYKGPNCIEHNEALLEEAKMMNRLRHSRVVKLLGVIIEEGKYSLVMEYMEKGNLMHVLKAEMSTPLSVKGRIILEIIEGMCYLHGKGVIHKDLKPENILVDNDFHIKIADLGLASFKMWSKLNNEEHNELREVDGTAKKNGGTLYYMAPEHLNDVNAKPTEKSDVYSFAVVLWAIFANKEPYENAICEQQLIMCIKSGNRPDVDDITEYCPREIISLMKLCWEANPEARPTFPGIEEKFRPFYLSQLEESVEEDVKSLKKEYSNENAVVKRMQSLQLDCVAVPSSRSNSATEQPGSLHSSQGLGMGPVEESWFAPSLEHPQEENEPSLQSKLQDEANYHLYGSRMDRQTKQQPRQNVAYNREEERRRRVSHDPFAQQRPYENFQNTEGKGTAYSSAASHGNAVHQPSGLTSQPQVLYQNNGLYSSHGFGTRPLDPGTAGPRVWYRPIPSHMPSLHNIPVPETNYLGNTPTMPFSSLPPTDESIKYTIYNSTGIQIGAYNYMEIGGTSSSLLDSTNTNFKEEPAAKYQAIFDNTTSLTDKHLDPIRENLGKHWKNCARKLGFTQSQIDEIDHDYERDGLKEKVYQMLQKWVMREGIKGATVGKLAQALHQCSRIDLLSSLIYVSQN

In test [6] the target is Cyclin-dependent kinase 7 (Homo sapiens, UniProt P50613).
Test [7] deals with Receptor tyrosine-protein kinase erbB-2 (Homo sapiens, UniProt P04626).
Receptor tyrosine-protein kinase erbB-2, sequence (P04626 whole entry): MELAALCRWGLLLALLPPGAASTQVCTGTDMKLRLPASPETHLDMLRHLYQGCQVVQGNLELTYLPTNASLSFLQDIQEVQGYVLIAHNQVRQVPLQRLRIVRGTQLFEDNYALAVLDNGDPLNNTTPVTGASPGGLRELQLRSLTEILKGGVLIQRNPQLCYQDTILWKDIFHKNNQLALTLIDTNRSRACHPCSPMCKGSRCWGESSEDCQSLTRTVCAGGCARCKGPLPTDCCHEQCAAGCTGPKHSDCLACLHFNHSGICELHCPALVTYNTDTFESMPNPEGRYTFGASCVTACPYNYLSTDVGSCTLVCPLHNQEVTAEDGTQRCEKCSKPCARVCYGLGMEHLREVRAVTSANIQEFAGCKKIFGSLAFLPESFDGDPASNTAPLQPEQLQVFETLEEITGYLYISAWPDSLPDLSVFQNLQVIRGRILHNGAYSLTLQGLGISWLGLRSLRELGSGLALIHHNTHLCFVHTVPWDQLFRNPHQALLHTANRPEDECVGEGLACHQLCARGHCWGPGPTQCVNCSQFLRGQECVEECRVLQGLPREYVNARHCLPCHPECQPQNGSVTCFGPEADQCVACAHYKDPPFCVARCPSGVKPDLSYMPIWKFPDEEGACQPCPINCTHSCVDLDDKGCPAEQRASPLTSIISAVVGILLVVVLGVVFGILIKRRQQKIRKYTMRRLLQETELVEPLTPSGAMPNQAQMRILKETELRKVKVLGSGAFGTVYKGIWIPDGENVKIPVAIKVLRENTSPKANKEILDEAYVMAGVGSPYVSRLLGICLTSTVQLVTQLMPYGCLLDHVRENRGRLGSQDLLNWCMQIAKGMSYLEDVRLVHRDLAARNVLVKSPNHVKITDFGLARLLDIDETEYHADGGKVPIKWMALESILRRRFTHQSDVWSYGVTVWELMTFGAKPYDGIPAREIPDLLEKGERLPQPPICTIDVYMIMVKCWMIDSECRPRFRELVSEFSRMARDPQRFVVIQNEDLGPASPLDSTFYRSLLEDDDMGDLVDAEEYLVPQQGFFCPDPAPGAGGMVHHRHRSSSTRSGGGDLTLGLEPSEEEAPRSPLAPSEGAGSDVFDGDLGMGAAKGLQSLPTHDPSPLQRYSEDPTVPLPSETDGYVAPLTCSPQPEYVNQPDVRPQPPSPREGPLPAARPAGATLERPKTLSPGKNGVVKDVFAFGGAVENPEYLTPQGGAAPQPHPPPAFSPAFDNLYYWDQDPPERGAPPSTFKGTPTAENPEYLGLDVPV

Serine/threonine-protein kinase tousled-like 2, sequence (Q86UE8 whole entry): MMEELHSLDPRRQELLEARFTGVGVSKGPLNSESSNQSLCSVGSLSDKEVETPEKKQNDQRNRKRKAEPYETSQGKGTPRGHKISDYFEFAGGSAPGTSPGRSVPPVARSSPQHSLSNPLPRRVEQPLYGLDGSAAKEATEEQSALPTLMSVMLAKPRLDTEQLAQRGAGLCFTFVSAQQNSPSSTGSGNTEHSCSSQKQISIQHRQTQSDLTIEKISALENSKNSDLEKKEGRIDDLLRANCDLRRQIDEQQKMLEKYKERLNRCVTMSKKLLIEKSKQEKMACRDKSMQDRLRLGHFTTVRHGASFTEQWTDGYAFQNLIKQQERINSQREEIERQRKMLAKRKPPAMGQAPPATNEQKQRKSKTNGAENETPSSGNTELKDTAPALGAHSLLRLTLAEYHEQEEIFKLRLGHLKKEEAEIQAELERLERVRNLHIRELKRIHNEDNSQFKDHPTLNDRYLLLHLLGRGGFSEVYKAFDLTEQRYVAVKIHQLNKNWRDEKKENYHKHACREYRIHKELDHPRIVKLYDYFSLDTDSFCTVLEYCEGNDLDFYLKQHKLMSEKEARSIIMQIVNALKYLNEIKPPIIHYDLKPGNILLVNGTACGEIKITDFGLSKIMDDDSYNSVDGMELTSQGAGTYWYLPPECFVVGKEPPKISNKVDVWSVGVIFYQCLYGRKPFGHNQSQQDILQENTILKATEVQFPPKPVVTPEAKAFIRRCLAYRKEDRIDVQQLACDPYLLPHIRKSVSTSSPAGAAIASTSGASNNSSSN
Cyclin-dependent kinase 7, sequence (P50613 whole entry): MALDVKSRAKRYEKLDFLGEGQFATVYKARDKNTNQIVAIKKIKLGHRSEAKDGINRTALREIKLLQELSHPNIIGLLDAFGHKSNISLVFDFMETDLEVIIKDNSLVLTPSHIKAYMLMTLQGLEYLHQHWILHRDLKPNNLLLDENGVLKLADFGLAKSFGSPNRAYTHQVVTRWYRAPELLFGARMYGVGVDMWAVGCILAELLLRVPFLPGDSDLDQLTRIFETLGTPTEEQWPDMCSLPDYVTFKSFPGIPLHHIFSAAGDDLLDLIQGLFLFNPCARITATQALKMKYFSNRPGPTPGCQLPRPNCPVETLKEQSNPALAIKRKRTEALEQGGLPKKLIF

In the case of `CCN1CCN(Cc2ccc(NC(=O)Nc3ccc(Oc4cc(NC)ncn4)cc3)cc2C(F)(F)F)CC1` [AST-487], the Kd in test [1] is over 10 µM.

For `COCC(=O)NC/C=C/c1ccc2ncnc(Nc3ccc(Oc4ccc(C)nc4)c(C)c3)c2c1` [CP-724714], the Kd in test [2], in test [3], in test [1], in test [4], in test [5] and in test [6] was over 10 µM throughout.

Take `Nc1nc(Nc2ccc(S(N)(=O)=O)cc2)nn1C(=O)c1c(F)cccc1F` [JNJ-7706621]: the Kd in test [2] was over 10 µM; in test [3] it was over 10 µM; in test [1] it was 0.13 µM; in test [7] it was over 10 µM; in test [5], 1.8 µM.

For `CCOc1cc2ncc(C#N)c(Nc3ccc(F)c(Cl)c3)c2cc1NC(=O)/C=C/CN(C)C` [PELITINIB], the Kd in test [2] was over 10 µM; in test [7] it was 0.5 µM; in test [4] it was over 10 µM; in test [5], over 10 µM; in test [6], over 10 µM.

For the compound `Oc1ccc(-c2nc(-c3ccncc3)c(-c3ccc(F)cc3)[nH]2)cc1` [SB-202190], the Kd in test [2] is over 10 µM; in test [3], 2.2 µM; in test [1], over 10 µM; in test [7], over 10 µM; in test [4], over 10 µM; in test [5], over 10 µM. Further, in test [6], the Kd is over 10 µM.

Take `NC(=O)c1ccc(-c2nc(-c3ccc4c(c3)OCO4)c(-c3ccccn3)[nH]2)cc1` [SB-431542]: the Kd in test [2], in test [3], in test [1], in test [7], in test [4] and in test [5] was over 10 µM in each case. In test [6], this compound registered a Kd of over 10 µM.

Usually Kd stands for the free concentration of one partner at which half of the binding sites on the other are occupied at equilibrium, for simple one-to-one binding. Read a low Kd as a tighter complex.
